# In publication PMC10287566, “Signaling-specific inhibition of the CB1 receptor for cannabis use disorder: phase 1 and phase 2a randomized trials” (Nature Medicine, 2023):
# Like-named read-outs stand apart in the source and are kept apart here.
# Columns and labels:
# [1] = system: squirrel monkeys; assay: i.v. self-administration of THC in squirrel monkeys; assay type: in vivo, Saimiri sciureus
# Excerpt: Two experimental models were used: (1) THC i.v. self-administration and (2) THC-induced reinstatement of THC seeking. These two approaches were used to model the maintenance of daily cannabis use and cannabis seeking after a period of abstinence.
# For the self-administration experiments, four male squirrel monkeys (800–1,100 g; the estimated age was 17 years for three monkeys and 14 years for the fourth one) were used because this species reliably self-administers i.v. THC. Monkeys were trained to lever press for an i.v. injection of THC (4 µg kg^–1 per injection) under a 10-response fixed ratio schedule of drug injection (FR10; each 10th response on the lever produced an injection of THC, followed by a 60-s timeout). Number of lever presses and number of injections per session were recorded.
# [2] = biological target: human CB1 (Homo sapiens, UniProt P21554); assay: THC-induced decrease in cAMP in CHO-hCB1 cells; assay type: cell-based; set-up: host or cells: CHO-K1
# Method: CHO cells stably expressing the human CB1 receptor (CHO-hCB1) were used in these experiments (ES-110C, PerkinElmer).
# CHO-hCB1 cells were treated by concomitantly adding THC and the test compound for 45 min. Forskolin (2.5 µM) was also simultaneously added in all the conditions tested to sustain cAMP basal level. At the end of the treatment, cells were lysed for cAMP quantification. All measures were performed in triplicate in one experiment.
# The quantitative determination of cAMP was done using a competitive fluorescence immunoassay. Data were expressed as % of Δ fluorescence (ΔF) that was calculated as follows: ΔF% = (sample fluorescence − negative control fluorescence) / negative control fluorescence. These experiments were done by the CRO Fluofarma.
# [3] = system: 85 receptors; assay: Eurofins high-throughput binding screen; settings: 10 µM
# [4] = system: volunteers with CUD; assay: Phase 2a study, precipitated withdrawal, mood and sleep; assay type: in vivo, human
# Method: In addition to general safety assessment of vital signs, clinical chemistry and AEs, symptoms of cannabis withdrawal were assessed by daily measures of food intake, body weight, sleep efficiency[23],[41],[42] and mood[22]. […]
# We measured seven subscales of the 44-item VAS (‘Miserable’, ‘Anxious’, ‘Tired’, ‘Confused’, ‘Irritable’, ‘Social’ and ‘Bad effect’). […] Ratings were then done repeatedly (five times at 20, 40, 60, 90 and 120 min after cannabis).
# [5] = system: volunteers with CUD; assay: Phase 2a study, cannabis self-administration; assay type: in vivo, human
# Method: Participants, in groups of 3−4, completed two 5-d inpatient periods (first period ‘A’ and second period ‘B’) separated by a ≥ 14-d outpatient washout. During the two testing periods, participants received AEF0117 or matching placebo in counterbalanced order (two dosing sequences: AEF0117 first or placebo first). Participants took capsules at 9:00 each day and then smoked a controlled amount of cannabis (approximately 67 mg of THC smoked over 6 min) 3.5 h later (12:30). Ratings of the subjective effects of cannabis were done five times after cannabis administration (20 min, 40 min, 60 min, 90 min and 120 min after cannabis) using a VAS (0–100 mm). […] Participants were told that the cannabis strength could vary from day to day and between participants but that the cannabis they each received at 12:30 that day was the strength available for self-administration that day.
# On study days 2–5, beginning at 14:30, participants were given the option to self-administer individual puffs of cannabis (up to six puffs per timepoint) every 2 h until 20:30 (maximum of 24 puffs per day). Fifteen minutes before each self-administration opportunity, participants indicated the number of puffs they chose to purchase ($2 per puff), and they would pay for it (using faux money that was then subtracted from their study stipend) before receiving their individual ashtray, cannabis cigarette and lighter.
# [6] = system: mice; assay: Depression-related behavior, sucrose preference test, repeated treatment; assay type: in vivo; settings: mice, sucrose preference test, highest dose tested 15 mg/kg
# Excerpt: Anxiety-like behaviors were studied in the elevated plus maze (EPM), a rodent model used to evaluate the putative anxiogenic or anxiolytic effects of pharmacological compounds. Depression-related behaviors were studied using the sucrose preference test as a model of anhedonia, one of the cardinal symptoms of depression.
# The sucrose preference test was done in the home cage. Two identical bottles, one containing water and the other containing a 2% sucrose solution, were placed in the hopper of each cage. The mice had unlimited access to water and sucrose solutions during the active phase—the dark phase of the light/dark cycle that started at 20:00. The volume of water and of sucrose solution consumed was measured over two […] intervals, the first between 19:00 and 20:30 and the second between 20:30 and 22:00. At each timepoint, the bottles were weighed, and the intake volume was calculated by subtracting the […].
# The EPM assessment was done on day 26, and the sucrose preference test was done on day 28.
# [7] = Plasma and brain pharmacokinetics of oral AEF0117 in mice; assay type: in vivo; settings: mouse; for Kp: brain/plasma
# Method: Blood samples were centrifuged within 15 min after collection (~7 min at 1,600g and 4 °C) to obtain plasma. The brain was also harvested, weighed and frozen on dry ice. Plasma and brains were stored below −70 °C until analysis.
# [8] = system: healthy volunteers; assay type: in vivo, human; settings: MAD
# Method: Participants were admitted to the research clinic at midday before dosing (day −1). In the SAD study, they remained in-house until day 8 for PK and PD samples and safety assessments. In the MAD study, participants remained in-house until day 14 and returned to the research facility on an outpatient basis to have PK and safety assessments at 216 h and 264 h (day 16 and day 18) after their last dose (day 7). Safety monitoring (physical examinations, vital sign measurements, 12-lead ECGs, clinical safety laboratory tests and AE monitoring) were performed throughout the studies. Psychometrics tests (Bond & Lader VAS, Addiction Research Center Inventory (49-item short form) (ARCI-49) and Profile of Mood States 65 self-report items (POMS-65)) and the Columbia-Suicide Severity Rating Scale (C-SSRS) test were performed at baseline, before dose and at 4 h and 24 h after dose on day 1 and day 7 (MAD study, only) and C-SSRS only at 24 h.
# [9] = both sexes, CD-1 Swiss, plasma, mice po 0.3 mg/kg single
# [10] = both sexes, CD-1 Swiss, plasma, mice po 4 mg/kg single
# [11] = both sexes, CD-1 Swiss, plasma, mice po 10 mg/kg single
# Sequence of human CB1 (P21554 whole entry): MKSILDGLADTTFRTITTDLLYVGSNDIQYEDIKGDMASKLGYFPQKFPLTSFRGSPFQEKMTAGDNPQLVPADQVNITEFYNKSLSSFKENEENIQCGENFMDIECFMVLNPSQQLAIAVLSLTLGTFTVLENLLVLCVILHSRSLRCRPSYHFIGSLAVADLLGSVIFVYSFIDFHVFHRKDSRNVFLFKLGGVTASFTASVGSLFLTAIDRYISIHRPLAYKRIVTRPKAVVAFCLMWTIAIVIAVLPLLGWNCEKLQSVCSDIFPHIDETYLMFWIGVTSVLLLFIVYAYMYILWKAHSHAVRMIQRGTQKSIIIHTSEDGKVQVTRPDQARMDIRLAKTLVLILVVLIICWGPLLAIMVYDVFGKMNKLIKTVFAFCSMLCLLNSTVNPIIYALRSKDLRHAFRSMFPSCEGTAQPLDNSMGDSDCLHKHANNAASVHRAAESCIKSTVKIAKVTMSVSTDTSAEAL
compound,measurement,setting,value
"COc1ccc(CO[C@H]2CC[C@@]3(C)C(=CC[C@H]4[C@@H]5CC[C@H](C(C)=O)[C@@]5(C)CC[C@@H]43)C2)cc1 [AEF0117, 3β-(4-methoxybenzyloxy)pregn-5-en-20-one]",i.v. self-administration of THC,[1]; 15 µg kg^−1 oral,significantly reduced
same,% Inhibition,[1]; Self-administration of THC,80%
same,ID50,[1]; Self-administration of THC,0.005 mg/kg
same,ID100,[1]; Self-administration of THC,0.015 mg/kg
same,effect on THC's effects on cAMP,[2],without modifying
same,binding activity at 85 receptors,[3],did not modify binding to any receptor
same,"'Social' subscale rating after smoking cannabis, mean (SEM)","[4]; 0.06 mg cohort, Day 1",66.9 (4.3)
same,"'Social' subscale, AEF0117-Placebo","[4]; 0.06 mg cohort, Day 1",-5.9
same,"'Social' subscale rating after smoking cannabis, mean (SEM)","[4]; 0.06 mg cohort, Day 2",67.4 (5.8)
same,"'Social' subscale, AEF0117-Placebo","[4]; 0.06 mg cohort, Day 2",-3.1
same,"'Social' subscale rating after smoking cannabis, mean (SEM)","[4]; 0.06 mg cohort, Day 3",64.4 (6.0)
same,"'Social' subscale, AEF0117-Placebo","[4]; 0.06 mg cohort, Day 3",-6.6
same,"'Social' subscale rating after smoking cannabis, mean (SEM)","[4]; 0.06 mg cohort, Day 4",63.9 (5.6)
same,"'Social' subscale, AEF0117-Placebo","[4]; 0.06 mg cohort, Day 4",-7.8
same,"'Social' subscale rating after smoking cannabis, mean (SEM)","[4]; 0.06 mg cohort, Day 5",64.0 (5.8)
same,"'Social' subscale, AEF0117-Placebo","[4]; 0.06 mg cohort, Day 5",-6.0
same,"'Social' subscale rating after smoking cannabis, mean (SEM)","[4]; 1 mg cohort, Day 1",71.9 (5.5)
same,"'Social' subscale, AEF0117-Placebo","[4]; 1 mg cohort, Day 1",3.9
same,"'Social' subscale rating after smoking cannabis, mean (SEM)","[4]; 1 mg cohort, Day 2",71.4 (5.2)
same,"'Social' subscale, AEF0117-Placebo","[4]; 1 mg cohort, Day 2",1.3
same,"'Social' subscale rating after smoking cannabis, mean (SEM)","[4]; 1 mg cohort, Day 3",71.1 (5.6)
same,"'Social' subscale, AEF0117-Placebo","[4]; 1 mg cohort, Day 3",0.1
same,"'Social' subscale rating after smoking cannabis, mean (SEM)","[4]; 1 mg cohort, Day 4",67.0 (5.9)
same,"'Social' subscale, AEF0117-Placebo","[4]; 1 mg cohort, Day 4",-6.0
same,"'Social' subscale rating after smoking cannabis, mean (SEM)","[4]; 1 mg cohort, Day 5",69.5 (6.6)
same,"'Social' subscale, AEF0117-Placebo","[4]; 1 mg cohort, Day 5",-1.6
same,difference between AEF0117 and placebo on the 'Social' subscale,"[4]; 100-mm scale, after cannabis",< 8 mm
same,precipitation of cannabis withdrawal,"[4]; Phase 2a, 0.06 and 1 mg",little to suggest that AEF0117 precipitated cannabis withdrawal
same,"'Irritable' subscale, effect of treatment","[4]; Treatment x Day x Time, before cannabis",small but significant effect
same,cannabis self-administration,"[5]; 1 mg, global crossover analysis",reduced
same,number of individuals choosing to self-administer cannabis,"[5]; Treatment or Treatment x Dose, McNemar's test",no significant effect
same,Overall effect: increase in depression-related behaviors,[6],No
same,Tmax,"[7]; CD-1 Swiss (mice), Sprague Dawley (rats), brain, oral, mice and rats, read-out: tmax in the brain",7 h
same,Kp,"[7]; CD-1 Swiss (mice), Sprague Dawley (rats), po, mice and rats, oral, corn oil, read-out: brain/plasma concentration AUC ratio",> 4
same,Tmax,"[7]; CD-1 Swiss (mice), Sprague Dawley (rats), Beagle (dogs), plasma, po, mice, rats and dogs, single per os, read-out: tmax",~3 h
same,Kp,"[7]; both sexes, CD-1 Swiss, oral, 0.3 mg/kg, read-out: AUClast brain/plasma ratio",7.3
same,half-life,"[7]; both sexes, CD-1 Swiss, plasma, po, mice per os, read-out: half-life",10.1 to 25.6 h
same,AUC(0-t),[7]; [9],252 ng·h/mL
same,Cmax,[7]; [9],35.5 ng/mL
same,Tmax,"[7]; both sexes, CD-1 Swiss, plasma, mice po 0.3 mg/kg single, read-out: tmax",2.5 h
same,half-life,"[7]; both sexes, CD-1 Swiss, plasma, mice po 0.3 mg/kg single, read-out: t½ (converted)",17.8 h
same,AUC(0-t),[7]; [10],3730 ng·h/mL
same,Cmax,[7]; [10],490 ng/mL
same,Tmax,"[7]; both sexes, CD-1 Swiss, plasma, mice po 4 mg/kg single, read-out: tmax",2.25 h
same,half-life,"[7]; both sexes, CD-1 Swiss, plasma, mice po 4 mg/kg single, read-out: t½ (converted)",18.3 h
same,AUC(0-t),[7]; [11],11300 ng·h/mL
same,Cmax,[7]; [11],1790 ng/mL
same,Tmax,"[7]; both sexes, CD-1 Swiss, plasma, mice po 10 mg/kg single, read-out: tmax",2.25 h
same,half-life,"[7]; both sexes, CD-1 Swiss, plasma, mice po 10 mg/kg single, read-out: t½ (converted)",18.2 h
same,Tmax,"[7]; both sexes, CD-1 Swiss, plasma, mice, oral, corn oil, read-out: Tmax",3 h
same,ARCI 49 sub-scores,[8]; 0.6-6 mg vs placebo,No relevant trend
same,"Bond and Lader VAS (alertness, contentedness, calmness)",[8]; 0.6-6 mg vs placebo,No relevant differences between groups
same,POMS 65 derived sub-scores,"[8]; 0.6-6 mg vs placebo, except one outlier participant",no dose related trend
same,C-SSRS: number of subjects with suicidal ideation or behavior,"[8]; all doses 0.6-6 mg, Day 1 and Day 8",0 n (%)
